In patent US8044198B2, “Sirtuin modulating compounds” (Sirtris Pharmaceuticals, Inc., priority 2005, dated 2011):
Like-named read-outs stand apart in the source and are kept apart here.

Target: T1, SIRT1 (Homo sapiens, UniProt Q96EB6)
T1 sequence (Q96EB6 1-747): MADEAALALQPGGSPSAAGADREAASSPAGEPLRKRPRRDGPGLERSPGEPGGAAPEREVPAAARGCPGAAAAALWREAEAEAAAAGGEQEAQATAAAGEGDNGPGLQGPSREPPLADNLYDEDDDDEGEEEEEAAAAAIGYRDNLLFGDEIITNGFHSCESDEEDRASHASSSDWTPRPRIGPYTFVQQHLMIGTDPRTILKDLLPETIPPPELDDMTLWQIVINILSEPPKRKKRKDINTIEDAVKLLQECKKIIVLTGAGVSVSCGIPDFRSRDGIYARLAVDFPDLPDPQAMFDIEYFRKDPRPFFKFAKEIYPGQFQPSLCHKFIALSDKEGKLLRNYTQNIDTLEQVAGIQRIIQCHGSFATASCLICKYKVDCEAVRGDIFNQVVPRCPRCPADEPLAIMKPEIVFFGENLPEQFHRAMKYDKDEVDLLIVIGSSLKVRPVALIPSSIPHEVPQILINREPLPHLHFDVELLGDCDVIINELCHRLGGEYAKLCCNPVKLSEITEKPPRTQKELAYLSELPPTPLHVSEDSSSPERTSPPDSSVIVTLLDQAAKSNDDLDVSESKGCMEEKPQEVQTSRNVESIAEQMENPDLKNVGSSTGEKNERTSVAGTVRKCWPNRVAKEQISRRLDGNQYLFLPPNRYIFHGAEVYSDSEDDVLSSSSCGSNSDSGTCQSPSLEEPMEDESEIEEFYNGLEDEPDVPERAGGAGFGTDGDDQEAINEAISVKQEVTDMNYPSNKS
Test: SIRT1 mass spectrometry (MS) based deacetylation assay; as to FOLD ACT. MS: test concentration or dose not given here
Type: biochemical
Conditions: for EC50: mass spectrometry assay, read-out: ED50 MS ASSAY

[1] = fold activation of SIRT1, mass spectrometry assay
[2] = Sirt1 activators, fold activation as determined by MS

Compound | EC50 (SIRT1 activation) | FOLD ACT. MS [1] | FOLD ACT. MS [2] | EC50 (Sirt1 activators)
CN(C)c1cccc(C(=O)Nc2cccc(-c3nc4ccncc4o3)c2)c1 [Compound 453] | 5 to 50 µM | B (B (Fold Activation <250%)) |  | 
COc1ccc(C(=O)Nc2cccc(-c3nc4ccncc4o3)c2)cc1OC [Compound 454] | 5 to 50 µM | B (B (Fold Activation <250%)) |  | 
COc1ccc(C(=O)Nc2ccccc2-c2nc3ccncc3o2)c(OC)c1 [Compound 455] | < 5 µM | B (B (Fold Activation <250%)) |  | 
COc1cc(OC)cc(C(=O)Nc2ccccc2-c2nc3ccncc3o2)c1 [Compound 456] | < 5 µM | B (B (Fold Activation <250%)) |  | 
COc1cc(C(=O)Nc2ccccc2-c2nc3ccncc3o2)cc(OC)c1OC [Compound 457] | 5 to 50 µM | B (B (Fold Activation <250%)) |  | 
CN(C)c1cccc(C(=O)Nc2ccccc2-c2nc3ccncc3o2)c1 [Compound 458] | < 5 µM | B (B (Fold Activation <250%)) |  | 
CN(C)c1ccc(C(=O)Nc2ccccc2-c2nc3ccncc3o2)cc1 [Compound 459] |  |  | B (B (Fold Activation <250%)) | < 5 µM
O=C(CCc1ccccc1)Nc1ccccc1-c1nc2ccncc2s1 [Compound 460] |  |  |  | 5 to 50 µM
Cc1cc(C(=O)Nc2ccccc2-c2nc3ccncc3s2)n(C(C)(C)C)n1 [Compound 462] |  |  |  | < 5 µM
CC(Oc1ccccc1)C(=O)Nc1ccccc1-c1nc2ccncc2s1 (stereo not drawn) [Compound 463] |  |  |  | 5 to 50 µM
Cc1cc(C)cc(C(=O)Nc2cc(-c3nc4ncccc4o3)ccn2)c1 [Compound 468] |  |  | B (B (Fold Activation <250%)) | 5 to 50 µM
COC(=O)c1cccc(NC(=S)Nc2cccc(-c3nc4ccncc4s3)c2)c1 [Compound 473] |  |  |  | < 5 µM
S=C(Nc1ccc(-n2cccn2)cc1)Nc1cccc(-c2nc3ccncc3s2)c1 [Compound 481] |  |  |  | 5 to 50 µM
Cc1cc(C)cc(C(=O)Nc2ccccc2-c2nc3ncccc3o2)c1 [Compound 482] |  |  | B (B (Fold Activation <250%)) | < 5 µM
S=C(Nc1ccc(N2CCOCC2)nc1)Nc1cccc(-c2nc3ccncc3s2)c1 [Compound 484] |  |  | B (B (Fold Activation <250%)) | 5 to 50 µM
S=C(Nc1cccnc1)Nc1cccc(-c2nc3ccncc3s2)c1 [Compound 485] |  |  |  | 5 to 50 µM
COc1ccc(CNC(=S)Nc2cccc(-c3nc4ccncc4s3)c2)cc1 [Compound 498] |  |  |  | 5 to 50 µM
COc1cc(C(=O)Nc2ccccc2-c2nc3ccccc3[nH]2)ccc1CN1CCOCC1 [Compound 503] |  |  | A (A (Fold activation >250%)) | < 5 µM
CN(C)c1cccc(C(=O)Nc2ccccc2-c2cn3cccnc3n2)c1 [Compound 504] |  |  | B (B (Fold Activation <250%)) | 5 to 50 µM
COc1cc(C(=O)Nc2cccc(-c3nc4ncccc4o3)c2)ccc1CN1CCCC1 [Compound 506] |  |  | A (A (Fold activation >250%)) | 5 to 50 µM
COc1ccc(C(=O)Nc2ccc(C)cc2-c2nc3ccccc3[nH]2)cc1OC [Compound 507] |  |  | A (A (Fold activation >250%)) | < 5 µM
O=C(Nc1ccccc1-c1nc2ccccc2[nH]1)c1cnc2ccccc2n1 [Compound 508] |  |  | A (A (Fold activation >250%)) | < 5 µM
O=C(Nc1ccccc1-c1cn2c(CN3CCNCC3)csc2n1)c1c[nH]c2ccccc12 [Compound 510] |  |  | A (A (Fold activation >250%)) | < 5 µM
O=C(Nc1ccccc1-c1cn2c(CN3CCNCC3)csc2n1)c1c[nH]nc1-c1ccccc1 [Compound 512] |  |  | A (A (Fold activation >250%)) | < 5 µM
O=C(Nc1ccccc1-c1cn2cc(CN3CCNCC3)sc2n1)c1cnc2ccccc2n1 [Compound 513] |  |  | A (A (Fold activation >250%)) | < 5 µM
O=C(Nc1cccc(-c2nc3nc(CN4CCNCC4)ccc3o2)c1)c1cnc2ccccc2n1 [Compound 514] |  |  | B (B (Fold Activation <250%)) | 5 to 50 µM
